Measurements published in the NIST ThermoML archive (doi:10.1016/j.jct.2006.05.009).

Experiments:
[1] = molar heat capacity at constant pressure; conditions: 101.33 kPa, Crystal 2
[2] = Molar enthalpy of transition or fusion

Cn1c(=O)c2c(ncn2C)n(C)c1=O [caffeine]
Conditions	Molar enthalpy of transition or fusion [kJ/mol]	molar heat capacity at constant pressure [J/K/mol]
[1], 80.83 K	–	98.31
[1], 84.15 K	–	101.95
[1], 87.22 K	–	104.62
[1], 90.15 K	–	106.27
[1], 93.05 K	–	109.02
[1], 95.91 K	–	112.23
[1], 98.73 K	–	116.53
[1], 101.49 K	–	119.06
[1], 104.21 K	–	121.47
[1], 106.88 K	–	123.99
[1], 109.98 K	–	125.77
[1], 113.03 K	–	127.49
[1], 115.96 K	–	130.48
[1], 118.81 K	–	132.67
[1], 121.58 K	–	134.84
[1], 124.27 K	–	136.76
[1], 126.89 K	–	139.36
[1], 129.43 K	–	140.97
[1], 131.92 K	–	142.97
[1], 134.34 K	–	144.92
[1], 136.69 K	–	145.99
[1], 138.99 K	–	148.53
[1], 141.24 K	–	149.98
[1], 143.42 K	–	150.47
[1], 145.52 K	–	151.98
[1], 148 K	–	155.83
[1], 150.06 K	–	156.99
[1], 152.08 K	–	157.88
[1], 154.08 K	–	159.38
[1], 156.06 K	–	160.61
[1], 158.01 K	–	161.82
[1], 159.95 K	–	162.55
[1], 161.87 K	–	163.14
[1], 163.77 K	–	164.64
[1], 165.79 K	–	164.91
[1], 168.47 K	–	166.4
[1], 171.41 K	–	166.83
[1], 174.32 K	–	167.9
[1], 177.21 K	–	169.06
[1], 180.03 K	–	169.58
[1], 182.8 K	–	171.5
[1], 185.57 K	–	172.7
[1], 188.3 K	–	174.64
[1], 191 K	–	176.3
[1], 193.71 K	–	178.38
[1], 196.39 K	–	179.3
[1], 199.05 K	–	180.41
[1], 201.7 K	–	181.59
[1], 204.31 K	–	182.99
[1], 206.91 K	–	184.79
[1], 209.47 K	–	186.12
[1], 212.08 K	–	187.01
[1], 214.76 K	–	189.97
[1], 217.47 K	–	191.2
[1], 220.2 K	–	192.68
[1], 222.95 K	–	194.21
[1], 226.26 K	–	195.06
[1], 230.04 K	–	197.34
[1], 233.76 K	–	198.99
[1], 237.43 K	–	200.1
[1], 241.09 K	–	202.07
[1], 244.7 K	–	202.6
[1], 248.28 K	–	203.14
[1], 251.82 K	–	203.17
[1], 255.32 K	–	204.06
[1], 258.78 K	–	205.75
[1], 259.39 K	–	207.72
[1], 262.25 K	–	207.77
[1], 265.07 K	–	209.13
[1], 267.83 K	–	210.94
[1], 270.58 K	–	212.28
[1], 273.31 K	–	213.56
[1], 276.04 K	–	215.35
[1], 278.76 K	–	217.05
[1], 281.49 K	–	217.99
[1], 284.22 K	–	220.07
[1], 286.92 K	–	223.22
[1], 289.58 K	–	223.75
[1], 292.23 K	–	225.69
[1], 294.87 K	–	226.47
[1], 297.52 K	–	227.12
[1], 300.14 K	–	227.17
[1], 302.75 K	–	228.98
[1], 305.33 K	–	230.29
[1], 307.91 K	–	230.71
[1], 310.51 K	–	233.27
[1], 313.09 K	–	234.23
[1], 315.65 K	–	234.61
[1], 318.19 K	–	235.23
[1], 320.86 K	–	237.37
[1], 323.42 K	–	238.29
[1], 325.99 K	–	238.92
[1], 328.63 K	–	240.12
[1], 331.31 K	–	243.07
[1], 333.96 K	–	245.08
[1], 336.61 K	–	246.31
[1], 339.22 K	–	248.21
[1], 341.76 K	–	249.29
[1], 344.27 K	–	251.55
[1], 346.83 K	–	253.2
[1], 349.18 K	–	254.04
[1], 351.69 K	–	255.21
[1], 354.36 K	–	256.94
[1], 357.01 K	–	258.67
[1], 359.66 K	–	260.51
[1], 362.27 K	–	261.86
[1], 364.86 K	–	262.9
[1], 367.44 K	–	264.99
[1], 369.95 K	–	266.24
[1], 372.45 K	–	266.46
[1], 374.91 K	–	267.26
[1], 377.39 K	–	269.44
[1], 379.84 K	–	270.33
[1], 382.28 K	–	271.84
[1], 384.69 K	–	272.71
[1], 387.08 K	–	274.88
[2], Crystal 1	19.9	–
[2], Crystal 2	3.43	–

Conditions	Triple point temperature [K]
Crystal 1	509
Crystal 2	413.39
